≈ marks a conversion by molar mass, not a printed value. Calls of active or inactive are those of the source. The rule behind the calls is not given here.
Assays:
[1] = Toxicity in fasted male Sprague-Dawley rat assessed as relative liver weight ratio at 331 mg/kg, IG measured for 14 days (reference value: 3.616 +/- 0.286); assay type: organism-based; settings: in vivo, po, 336 h, time 14 day
[2] = system: Mycoplasmoides gallisepticum; test: Anti-mycoplasma activity against Mycoplasma gallisepticum MG-R-NCTC10115 assessed as bacterial growth inhibition incubated for 7 days; assay type: functional; settings: MG-R-NCTC10115, 168 h, time 7 day
[3] = Toxicity in fasted male Sprague-Dawley rat assessed as relative spleen weight ratio at 224 mg/kg, IG measured for 14 days (reference value: 0.246 +/- 0.037); assay type: organism-based; settings: in vivo, po, 336 h, time 14 day
[4] = system: Staphylococcus aureus; test: Antibacterial activity against methicillin-resistant Staphylococcus aureus 171 clinical isolate assessed as bacterial growth inhibition incubated for 24 hrs by CLSI based broth microdilution method; assay type: functional
[5] = Toxicity in fasted female Sprague-Dawley rat assessed as body weight at 224 mg/kg, IG measured on same day (reference value: 165.2 +/- 8.1 g); assay type: organism-based; settings: in vivo, po
[6] = Toxicity in fasted female Sprague-Dawley rat assessed as relative lung weight ratio at 224 mg/kg, IG measured for 14 days (reference value: 0.534 +/- 0025); assay type: organism-based; settings: in vivo, po, 336 h, time 14 day
[7] = Toxicity in fasted male Sprague-Dawley rat assessed as body weight at 148 mg/kg, IG measured on same day (reference value: 212.7 +/- 13.2 g); assay type: organism-based; settings: in vivo, po
[8] = Toxicity in fasted male Sprague-Dawley rat assessed as relative heart weight ratio at 148 mg/kg, IG measured for 14 days (reference value: 0.396 +/- 0.043); assay type: organism-based; settings: in vivo, po, 336 h, time 14 day
[9] = system: Acinetobacter baumannii; test: Antibacterial activity against carbapenem-resistant Acinetobacter baumannii 882 clinical isolate assessed as bacterial growth inhibition incubated for 24 hrs by CLSI based broth microdilution method; assay type: functional
[10] = Toxicity in fasted female Sprague-Dawley rat assessed as relative heart weight ratio at 224 mg/kg, IG measured for 14 days (reference value: 0.429 +/- 0.016); assay type: organism-based; settings: in vivo, po, 336 h, time 14 day
[11] = system: Escherichia coli; test: Inhibition of biofilm formation of Escherichia coli ATCC 25922 at MIC incubated for 24 hrs by crystal violet staining based analysis relative to control; assay type: functional
[12] = Toxicity in fasted male Sprague-Dawley rat assessed as relative heart weight ratio at 224 mg/kg, IG measured for 14 days (reference value: 0.396 +/- 0.043); assay type: organism-based; settings: in vivo, po, 336 h, time 14 day
[13] = Toxicity in fasted female Sprague-Dawley rat assessed as body weight at 331 mg/kg, IG measured on same day (reference value: 165.2 +/- 8.1 g); assay type: organism-based; settings: in vivo, po
[14] = Toxicity in fasted female Sprague-Dawley rat assessed as body weight at 331 mg/kg, IG measured after 14 days (reference value: 214.3 +/- 9.8 g); assay type: organism-based; settings: in vivo, po, 336 h, time 14 day
[15] = system: Staphylococcus aureus; test: Bactericidal activity against methicillin-resistant Staphylococcus aureus ATCC 33591 at 2 to 8 times MIC incubated for 8 to 24 hrs by time kill assay relative to control; assay type: functional; settings: time 8-24 hrs
[16] = Toxicity in fasted Sprague-Dawley rat assessed as mortality rate at 148 mg/kg, IG measured for 14 days; assay type: organism-based; settings: in vivo, po, time 14 day
[17] = Toxicity in fasted female Sprague-Dawley rat assessed as relative liver weight ratio at 224 mg/kg, IG measured for 14 days (reference value: 3.199 +/- 0.062); assay type: organism-based; settings: in vivo, po, 336 h, time 14 day
[18] = system: Mesomycoplasma hyorhinis; test: Anti-mycoplasma activity against Mycoplasma hyorhinis BTS-7-NCTC10130 assessed as bacterial growth inhibition incubated for 7 days; assay type: functional; settings: BTS-7-NCTC10130, 168 h, time 7 day
[19] = system: Staphylococcus aureus; test: Antibacterial activity against methicillin-resistant Staphylococcus aureus ATCC 33591 infected in neutropenic Kunming mouse model assessed as bacterial load reduction in kidney at 10 to 20 mg/kg, ip measured after 2 days; assay type: functional, organism-based; settings: dose 10-20 mg/kg, time 2.0 day
[20] = Toxicity in fasted Sprague-Dawley rat assessed as mortality rate at 331 mg/kg, IG measured for 14 days; assay type: organism-based; settings: in vivo, po, time 14 day
[21] = Toxicity in fasted male Sprague-Dawley rat assessed as relative spleen weight ratio at 148 mg/kg, IG measured for 14 days (reference value: 0.246 +/- 0.037); assay type: organism-based; settings: in vivo, po, 336 h, time 14 day
[22] = Toxicity in fasted male Sprague-Dawley rat assessed as body weight at 100 mg/kg, IG measured on same day (reference value: 212.7 +/- 13.2 g); assay type: organism-based; settings: in vivo, po
[23] = Toxicity in fasted female Sprague-Dawley rat assessed as body weight at 224 mg/kg, IG measured after 14 days (reference value: 214.3 +/- 9.8 g); assay type: organism-based; settings: in vivo, po, 336 h, time 14 day
[24] = system: Mycoplasmopsis synoviae; test: Anti-mycoplasma activity against Mycoplasmopsis synoviae MS-MVU1852-NCTC10124 assessed as bacterial growth inhibition incubated for 7 days; assay type: functional; settings: MS-MVU1852-NCTC10124, 168 h, time 7 day
[25] = system: Staphylococcus aureus; test: Depolarization of cell membrane in methicillin-resistant Staphylococcus aureus ATCC 33591 by DiBAC4(3) probe based analysis; assay type: functional, organism-based
[26] = Toxicity in fasted male Sprague-Dawley rat assessed as relative liver weight ratio at 100 mg/kg, IG measured for 14 days (reference value: 3.616 +/- 0.286); assay type: organism-based; settings: in vivo, po, 336 h, time 14 day
[27] = Toxicity in fasted female Sprague-Dawley rat assessed as relative heart weight ratio at 100 mg/kg, IG measured for 14 days (reference value: 0.429 +/- 0.016); assay type: organism-based; settings: in vivo, po, 336 h, time 14 day
[28] = system: Staphylococcus aureus; test: Disruption of cell membrane integrity in methicillin-resistant Staphylococcus aureus ATCC 33591 at 4 times MIC incubated for 4 hrs by FESEM analysis; assay type: functional, organism-based
[29] = system: Escherichia coli; test: Induction of cell damage in Escherichia coli ATCC 25922 assessed as decrease in intracellular ATP concentration at 2 times MIC incubated for 30 mins by fluorescence based analysis relative to control; assay type: functional; parameters: scale not given: the % may be the effect or the level left; settings: 0.5 h
[30] = Toxicity in fasted female Sprague-Dawley rat assessed as relative kidney weight ratio at 331 mg/kg, IG measured for 14 days (reference value: 0.802 +/- 0.031); assay type: organism-based; settings: in vivo, po, 336 h, time 14 day
[31] = system: Staphylococcus aureus; test: Antibacterial activity against methicillin-resistant Staphylococcus aureus ATCC 33591 infected in neutropenic Kunming mouse model assessed as restoration of infection- induced change in cell morphology in lung at 20 mg/kg, ip measured after 7 days; assay type: functional, organism-based; settings: time 7.0 day
[32] = Volume of distribution at steady state in fasted Sprague-Dawley rat at 1 mg/kg, iv by LC-MS/MS analysis; assay type: ADME, organism-based; settings: in vivo, read-out: Vdss
[33] = Toxicity in fasted male Sprague-Dawley rat assessed as relative spleen weight ratio at 100 mg/kg, IG measured for 14 days (reference value: 0.246 +/- 0.037); assay type: organism-based; settings: in vivo, po, 336 h, time 14 day
[34] = Toxicity in fasted male Sprague-Dawley rat assessed as relative kidney weight ratio at 100 mg/kg, IG measured for 14 days (reference value: 0.820 +/- 0.072); assay type: organism-based; settings: in vivo, po, 336 h, time 14 day
[35] = system: Escherichia coli; test: Induction of cell damage in Escherichia coli ATCC 25922 assessed as fold increase in extracellular ATP concentration at MIC incubated for 30 mins by fluorescence based analysis relative to control; assay type: functional; settings: 0.5 h
[36] = Toxicity in fasted male Sprague-Dawley rat assessed as body weight at 331 mg/kg, IG measured after 7 days (reference value: 260.5 +/- 12.7 g); assay type: organism-based; settings: in vivo, po, 168 h, time 7 day

Compound: C=C[C@]1(C)C[C@@H](OC(=O)COC(=O)/C=C/c2ccc(N(C)C)cc2)[C@]2(C)[C@H](C)CC[C@]3(CCC(=O)[C@H]32)[C@@H](C)[C@@H]1O
- Ratio [1]: 3.528
- MIC [2]: 4 ng/mL (≈ 0.00725 µM)
- Ratio [3]: 0.229
- MIC [4]: 8000 ng/mL (≈ 14.5 µM)
- Activity [5]: 168.5 g
- Ratio [6]: 0.531
- Activity [7]: 208.6 g
- Ratio [8]: 0.379
- MIC [9]: 64000 ng/mL (≈ 116 µM)
- Ratio [10]: 0.453
- inhibition (INH) [11]: 58.1%
- Ratio [12]: 0.38
- Activity [13]: 171.3 g
- Activity [14]: 218.7 g
- Activity [15]: 100%
- mortality at 336 h [16]: 0%
- Ratio [17]: 3.197
- MIC [18]: 4 ng/mL (≈ 0.00725 µM)
- Activity [19]: Active
- mortality at 336 h [20]: 0%
- Ratio [21]: 0.227
- Activity [22]: 215.3 g
- Activity [23]: 217.4 g
- MIC [24]: 8 ng/mL (≈ 0.0145 µM)
- Activity [25]: Dose-Dependent Effect
- Ratio [26]: 3.623
- Ratio [27]: 0.438
- Activity [28]: Active
- Activity [29]: 67.87%
- Ratio [30]: 0.832
- Activity [31]: Active
- Vd [32]: 2 L/kg
- Ratio [33]: 0.254
- Ratio [34]: 0.822
- fold change (FC) [35]: 6.12
- Activity [36]: 268 g
